Experimental data as given in patent publication US20220233624A9, “ANTI-CANCER AND ANTI-PROLIFERATIVE COMPOSITIONS, AND METHODS FOR THEIR USE IN TREATING CANCER” (Natreon, Inc., priority 2020, published 2022).
Read-outs that look alike come from different tables or passages of the source.

Legend:
[1] = system: Ovarian cancer (OVCAR-3) cells; experiment: Anti-proliferation assay on ovarian cancer cells; assay type: cell-based; conditions: Homo sapiens
Method: Cells were plated at 1.25 k/well in 384 well plates. […] Anti-proliferative assays were generally performed as discussed in Example I above, in triplicate, with detection reagent CellTiterGlo. Tables 80-82 show data for controls for assays on prostate cancer (PC-3 cells), and that the data passed quality control parameters. Tables 83-85 show data for controls for assays on ovarian cancer (OVCAR-3 cells), and that the data passed quality control parameters.

[2] = system: Acute Promyelocytic Leukemia PDCs (APL-SB 46120); experiment: Anti-proliferation assay on APL subtype AML PDCs; assay type: cell-based; conditions: Homo sapiens
Method: (§1) In this Example, AML drugs were used as disease specific controls.
The AML PDCs evaluated below were an Acute Promyelocytic Leukemia (APL, APML) subtype, APL-SB 46120, from a human subject.
IC25 values were calculated using IC50 and hill slope. […] The drugs were used in these concentrations on the new APL subtype cells as described further below. […]

[3] = system: AML (Acute myeloid leukemia) PDCs, M4 subtype (SB 33866); experiment: Anti-proliferation assay on AML PDCs; assay type: cell-based, human; conditions: for inhibition at 10 µM: assay drug control @ 10 uM
Method: Anti-proliferation assays were performed on 6 types of primary patient-derived cancer cells (PDCs) from 6 different human donors, as described in Table 1:
Tests were performed in 384-well plates (24×16), using 1250 to 10,000 cells/well depending on the size and proliferation rate of different PDCs, in 30 ul of culture media (DMEM/F12 with serum and growth factors), with control wells set aside on each plate for media alone (4 wells), untreated PDCs (4 wells), and for PDCs treated with 10 ul of a known anti-cancer drug as a control. […] The outermost rows/columns of the plates were filled with PBS (pH 7.4) to avoid an edge-effect and were considered as blanks.
Standardized aqueous extracts identified in Table 2 were prepared in main stock solutions by dissolving 1 mg of extract in 1 ml PBS (phosphate-buffered saline, pH 7.4).
Anti-Proliferation Assay Protocol: 30 ul of cells were plated at the density of 1250 to 10,000 cells/well. The plate was incubated in a CO2 incubator for 0/N incubation for 24 hours. […] Final assay concentrations of made from stock solutions of standardized aqueous extracts identified in Table 2 were 100 ug/ml, 30 ug/ml, and 10 ug/ml. Since 10 ul extract was added to 30 ul of cell suspension, it diluted 4 times, so to maintain the final assay concentrations, 4× concentrated extract solutions (400 ug/ml, 120 ug/ml, and 40 ug/mo) were prepared from main stock (1 mg/ml) and added to the plate. In all experiments, 10 ul of 4 times concentrated stock (4×) was added to wells containing 30 ul of cell suspension to achieve final assay concentrations at 1X.
Once extracts were added to incubated cells and mixed gently, the plate was given a brief spin and incubated in the CO2 incubator for 72 hours. The plate was removed from the incubator and 10 ul of detection reagent (CellTiterGlo®; Promega Corporation, Wisconsin, USA) added to each well of the 384 well plate. The plate was incubated (10 min) and luminescence counts measured, with luminescence produced proportional to the number of viable (living, metabolically active) cells for each assay. The assay described above is a two-dimensional (2D) assay.
as §1
As discussed above in Example I, 6 extracts (Ayuflex®, Capros®, Phyto-BGS®, PrimaVie®, Sensoril®, and Ayuric®) were tested on AML PDC-SB cells (33866, M-4 type, subject) at 3 concentrations: 100 ug/ml, 30 ug/ml, and 10 ug/ml.

[4] = system: TN Breast Cancer cell line MDAMB-231; experiment: Anti-proliferation assay on MDAMB-231 cells (72 h and 120 h); assay type: cell-based; conditions: Homo sapiens, MDA-MB-231, 10 uM
Method: Also, AyuFlex®, Capros®, and Ayuric® were tested in the anti-proliferative assay discussed above in the TN Breast Cancer cell line MDAMB-231. AyuFlex®, Capros®, and Ayuric® were incubated for 72 hours and 120 hours. The dose-response efficacy of AyuFlex®, Capros®, and Ayuric® after a 72-hour period of incubation was similar to that observed after a 120-hour period of incubation with the MDAMB-231 cells. Without being bound by theory, possibly this was due to saturation of cell growth at the 120-hour time-point.

[5] = system: SHP-77 (small cell lung cancer) cells; experiment: Anti-proliferation assay on small cell lung cancer cells; assay type: cell-based; conditions: Homo sapiens, SHP77
Method: SHP-77 (small cell lung cancer) cells were incubated for 72 hours with 100 ug/ml, 30 ug/ml, and 10 ug/ml each of AyuFlex®, Capros® Phyto-BGS®, PrimaVie®, Sensoril®, Ayuric®, and Crominex®, and tested according to the anti-proliferative assay described above. Cells were plated at 1.25 k/well in 384 well plates. Standard of care drug docetaxel was also tested at a 10 uM concentration as a control. Anti-proliferative assays were generally performed as discussed above, in triplicate, with detection reagent CellTiterGlo® as discussed for instance in Example I. Tables 77-79 show data for controls and that the data passed quality control parameters.

[6] = 10 uM, 72 h, read-out: % Inhibition Average (SD)
[7] = 10 uM, 72 h, read-out: % Inhibition n1
[8] = 10 uM, 72 h, read-out: % Inhibition n2
[9] = 10 uM, 72 h, read-out: % Inhibition n3
[10] = drug 10 uM, read-out: inhibition

- IC50 ([3]; Homo sapiens, AML cells (M4), read-out: Inhibitory Concentration IC50): 103 nM
SMILES: COc1cccc2c1C(=O)c1c(O)c3c(c(O)c1C2=O)C[C@@](O)(C(=O)CO)C[C@@H]3O[C@H]1C[C@H](N)[C@H](O)[C@H](C)O1 [Doxorubicin, doxorubicin]
- inhibition at 10 µM [1, 6]: 76%
- inhibition at 10 µM [1, 7]: 74%
- inhibition at 10 µM [1, 8]: 75%
- inhibition at 10 µM [1, 9]: 79%
- inhibition at 10 µM [1, 10]: 76%
- inhibition at 10 µM ([2]; Plate 1 quality control, read-out: % Inhibition Average): 96%
- inhibition at 10 µM ([2]; Plate 1 quality control, read-out: % Inhibition n1): 97%
- inhibition at 10 µM ([2]; Plate 1 quality control, read-out: % Inhibition n2): 96%
- inhibition at 10 µM ([2]; Plate 1 quality control, read-out: % Inhibition n3): 95%
- inhibition at 10 µM ([2]; Plate 2 quality control, read-out: % Inhibition Average): 97%
- inhibition at 10 µM ([2]; Plate 2 quality control, read-out: % Inhibition n1): 98%
- inhibition at 10 µM ([2]; Plate 2 quality control, read-out: % Inhibition n2): 97%
- inhibition at 10 µM ([2]; Plate 2 quality control, read-out: % Inhibition n3): 97%
- Inhibitory Concentration IC75 ([3]; AML cells (M4)): 260 nM
- inhibition at 10 µM ([3]; Homo sapiens, read-out: % Inhibition Avg): 72%
- inhibition at 10 µM ([3]; Homo sapiens, read-out: % Inhibition n1): 70%
- inhibition at 10 µM ([3]; Homo sapiens, read-out: % Inhibition n2): 73%
- inhibition at 3 µM ([3]; Homo sapiens, drug alone 3 uM, read-out: inhibition of AML proliferation): 100%
- inhibition at 3 µM ([3]; Homo sapiens, drug alone @ 3 uM, read-out: % Inhibition Avg): 100%
- inhibition at 3 µM ([3]; Homo sapiens, drug alone @ 3 uM, read-out: % Inhibition n1): 100%
- inhibition at 3 µM ([3]; Homo sapiens, drug alone @ 3 uM, read-out: % Inhibition n2): 100%
- inhibition at 3 µM ([3]; Homo sapiens, drug alone @ 3 uM, read-out: % Inhibition n3): 100%
- inhibition at 10 µM ([4]; 72 hour incubation, read-out: % Inhibition Avg): 75%
- inhibition at 10 µM ([4]; 72 hour incubation, read-out: % Inhibition n1): 78%
- inhibition at 10 µM ([4]; 72 hour incubation, read-out: % Inhibition n2): 73%
- inhibition at 10 µM ([4]; 72 hour incubation, read-out: % Inhibition n3): 73%
- inhibition at 10 µM ([4]; 120 hour incubation, read-out: % Inhibition Avg): 92%
- inhibition at 10 µM ([4]; 120 hour incubation, read-out: % Inhibition n1): 94%
- inhibition at 10 µM ([4]; 120 hour incubation, read-out: % Inhibition n2): 91%
- inhibition at 10 µM ([4]; 120 hour incubation, read-out: % Inhibition n3): 92%
- inhibition at 10 µM [5, 6]: 93%
- inhibition at 10 µM [5, 7]: 94%
- inhibition at 10 µM [5, 8]: 93%
- inhibition at 10 µM [5, 9]: 93%
- inhibition at 10 µM [5, 10]: 93%
